# How the values were obtained:
# Format in all cases: cell-based
# U937 cell line = assay: Cell inhibition assay (SRB cell viability), U937; settings: Homo sapiens, U-937, IC50 range class, 72 h, read-out: Inhibitor Activity vs U937 cell line
# Protocol: (§1) The corresponding cancer cell lines (U937, HCT 116 and HUT) growing in log phase were harvested and seeded at 1000 cells/well (200 ul final volume) into 96-well tissue culture plates. Following 24 h of cell growth cells were treated with compounds (final concentration of 20 uM). Plates were then re-incubated for a further 72 h before a sulphorhodamine B (SRB) cell viability assay was conducted according to Skehan 1990 J Natl Canc Inst 82, 1107-1112.
# (§2) Data were expressed as a percentage inhibition of the control, measured in the absence of inhibitor, as follows: — % inhibition=100−((S^i/S^o)×100) where S^i is the signal in the presence of inhibitor and S^o is the signal in the presence of DMSO.
# (§3) IC50 values were determined by non-linear regression analysis, after fitting the results of eight data points to the equation for sigmoidal dose response with variable slope (% activity against log concentration of compound), using Graphpad Prism software.
# HCT 116 cell line = assay: Cell inhibition assay (SRB cell viability), HCT 116; settings: Homo sapiens, IC50 range class, 72 h, read-out: Inhibitor Activity vs HCT 116 cell line
# Protocol: as §1, §2, §3
# HUT cell line = assay: Cell inhibition assay (SRB cell viability), HUT; settings: IC50 range class, 72 h, read-out: Inhibitor Activity vs HUT cell line
# Protocol: as §1, §2, §3
Structure (SMILES),IC50 (U937 cell line) [nM],IC50 (HCT 116 cell line) [nM],IC50 (HUT cell line) [nM]
"COc1cc2c(Oc3ccccc3)ccnc2cc1OCC[C@H](N)C(=O)OC1CCCC1 [Example 7, (S)-2-Amino-4-(6-methoxy-4-phenoxy-quinolin-7-yloxy)-butyric acid cyclopentyl ester]",1000 to 5000,> 5000,1000 to 5000
"COc1cc2c(Oc3ccc(-c4noc(-c5ccccc5)n4)cc3)ccnc2cc1OCC[C@H](N)C(=O)OC1CCCC1 [Example 92, (S)-2-Amino-4-{6-methoxy-4-[4-(5-phenyl-[1,2,4]oxadiazol-3-yl)-phenoxy]-quinolin-7-yloxy}-butyric acid cyclopentyl ester]",> 5000,> 5000,> 5000
"COc1cc2c(Oc3ccc4cccnc4c3)ccnc2cc1OCC[C@H](N)C(=O)OC1CCCC1 [Example 14, (S)-2-Amino-4-[6-methoxy-4-(quinolin-7-yloxy)-quinolin-7-yloxy]-butyric acid cyclopentyl ester]",< 1000,1000 to 5000,1000 to 5000
"COc1cc2c(Oc3ccc(CC(=O)Nc4cccc(F)c4)cc3)ccnc2cc1OCC[C@H](N)C(=O)OC1CCCC1 [Example 84, (S)-2-Amino-4-(4-{4-[(3-fluoro-phenylcarbamoyl)-methyl]-phenoxy}-6-methoxy-quinolin-7-yloxy)-butyric acid cyclopentyl ester]",< 1000,< 1000,< 1000
"COc1cc2c(Nc3cnc(NC(=O)c4ccccc4)nc3)ncnc2cc1OCC[C@H](N)C(=O)OC1CCCC1 [Example 31, (S)-2-Amino-4-[4-(2-benzoylamino-pyrimidin-5-ylamino)-6-methoxy-quinazolin-7-yloxy]-butyric acid cyclopentyl ester]",> 5000,> 5000,> 5000
"COc1cc2c(Oc3ccc4sc(C)nc4c3)ccnc2cc1OCC[C@H](N)C(=O)OC1CCCC1 [Example 12, (S)-2-Amino-4-[6-methoxy-4-(2-methyl-benzothiazol-5-yloxy)-quinolin-7-yloxy]-butyric acid cyclopentyl ester]",1000 to 5000,> 5000,> 5000
"CCN(CC)[C@@H](CCOc1cc2nccc(Oc3ccc(NC(=O)c4ccccc4)cc3)c2cc1OC)C(=O)OC1CCCC1 [Example 41, (S)-4-[4-(4-Benzoylamino-phenoxy)-6-methoxy-quinolin-7-yloxy]-2-diethylamino-butyric acid cyclopentyl ester]",1000 to 5000,1000 to 5000,1000 to 5000
"COc1cc2c(Nc3cnc(NC(=O)c4ccccc4)nc3)ccnc2cc1OCC[C@H](N)C(=O)OC1CCCC1 [Example 25, (S)-2-Amino-4-[4-(2-benzoylamino-pyrimidin-5-ylamino)-6-methoxy-quinolin-7-yloxy]-butyric acid cyclopentyl ester]",1000 to 5000,1000 to 5000,1000 to 5000
"COc1cc2c(Oc3ccc(NC(=O)c4ccccc4)cc3)ccnc2cc1OCC[C@H](NC1CCCCC1)C(=O)OC1CCCC1 [Example 39, (S)-4-[4-(4-Benzoylamino-phenoxy)-6-methoxy-quinolin-7-yloxy]-2-cyclohexylamino-butyric acid cyclopentyl ester]",1000 to 5000,> 5000,> 5000
"COc1cc2c(Nc3cnn(CC(=O)Nc4ccccc4)c3)ccnc2cc1OCC[C@H](N)C(=O)OC1CCCC1 [Example 22, (S)-2-Amino-4-[6-methoxy-4-(1-phenylcarbamoylmethyl-1H-pyrazol-4-ylamino)-quinolin-7-yloxy]-butyric acid cyclopentyl ester]",1000 to 5000,> 5000,> 5000
"COc1ccc(NC(=O)Cc2ccc(Oc3ccnc4cc(OCC[C@H](N)C(=O)OC5CCCC5)c(OC)cc34)cc2)cc1 [Example 90, (S)-2-Amino-4-(6-methoxy-4-{4-[(4-methoxy-phenylcarbamoyl)-methyl]-phenoxy}-quinolin-7-yloxy)-butyric acid cyclopentyl ester]",< 1000,< 1000,< 1000
"COc1cc2c(Oc3ccc(CC(=O)Nc4ccc(F)cc4F)cc3)ccnc2cc1OCC[C@H](N)C(=O)OC1CCCC1 [Example 88, (S)-2-Amino-4-(4-{4-[(2,4-difluoro-phenylcarbamoyl)-methyl]-phenoxy}-6-methoxy-quinolin-7-yloxy)-butyric acid cyclopentyl ester]",< 1000,< 1000,< 1000
"COc1cc2c(Oc3ccc(CC(=O)Nc4ccccc4F)cc3)ccnc2cc1OCC[C@H](N)C(=O)OC1CCCC1 [Example 82, (S)-2-Amino-4-(4-{4-[(2-fluoro-phenylcarbamoyl)-methyl]-phenoxy}-6-methoxy-quinolin-7-yloxy)-butyric acid cyclopentyl ester]",< 1000,< 1000,< 1000
"COc1cc2c(Oc3ccc(NC(=O)Nc4ccc(C(F)(F)F)cc4)cc3)ccnc2cc1OCC[C@@H](N)C(=O)OC1CCCC1 [Example 104, (R)-2-Amino-4-(6-methoxy-4-{4-[3-(4-trifluoromethyl-phenyl)-ureido]-phenoxy}-quinolin-7-yloxy)-butyric acid cyclopentyl ester]",< 1000,< 1000,< 1000
"COc1cc2c(Oc3ccc(NC(=O)Nc4ccc(C(F)(F)F)cc4)cc3)ccnc2cc1OCCC[C@H](N)C(=O)OC1CCCC1 [Example 113, (S)-2-Amino-5-(6-methoxy-4-{4-[3-(4-trifluoromethyl-phenyl)-ureido]-phenoxy}-quinolin-7-yloxy)-pentanoic acid cyclopentyl ester]",< 1000,< 1000,< 1000
"COc1cc2c(Nc3cc(C)[nH]n3)nc(Sc3ccccc3)nc2cc1OCC[C@H](N)C(=O)OC1CCCC1 [Example 143, (S)-2-Amino-4-[6-methoxy-4-(5-methyl-1H-pyrazol-3-ylamino)-2-phenylsulfanyl-quinazolin-7-yloxy]-butyric acid cyclopentyl ester]",1000 to 5000,> 5000,1000 to 5000

# Second part, led by results:
IC50 (U937 cell line) [nM],IC50 (HCT 116 cell line) [nM],Structure (SMILES),IC50 (HUT cell line) [nM]
< 1000,< 1000,"COc1cc2c(Oc3ccc(CC(=O)Nc4ccc(F)cc4)cc3)ccnc2cc1OCC[C@H](N)C(=O)OC1CCCC1 [Example 86, (S)-2-Amino-4-(4-{4-[(4-fluoro-phenylcarbamoyl)-methyl]-phenoxy}-6-methoxy-quinolin-7-yloxy)-butyric acid cyclopentyl ester]",< 1000
< 1000,< 1000,"COc1cc2c(Oc3ccc(NC(=O)c4ccccc4)cc3)ccnc2cc1OCC[C@H](N)C(=O)OC12CCC(CC1)C2 [Example 47, (S)-2-Amino-4-[4-(4-benzoylamino-phenoxy)-6-methoxy-quinolin-7-yloxy]-butyric acid bicyclo[2.2.1]hept-1-yl ester]",< 1000
< 1000,< 1000,"COc1cc2c(Oc3ccc(NC(=O)Nc4ccc(C(F)(F)F)cc4)cc3F)ccnc2cc1OCC[C@@H](N)C(=O)OC1CCCC1 [Example 108, (R)-2-Amino-4-(4-{2-fluoro-4-[3-(4-trifluoromethyl-phenyl)-ureido]-phenoxy}-6-methoxy-quinolin-7-yloxy)-butyric acid cyclopentyl ester]",< 1000
< 1000,< 1000,COc1cc2c(Oc3ccc(NC(=O)c4ccccc4)cn3)ccnc2cc1OCC[C@H](N)C(=O)OC1CCCC1 [Example 134],< 1000
< 1000,< 1000,"COc1cc2c(Oc3ccc(NC(=O)c4ccccc4)c(F)c3)ccnc2cc1OCC[C@H](N)C(=O)OC1CCCC1 [Example 130, (S)-2-Amino-4-[4-(4-benzoylamino-3-fluoro-phenoxy)-6-methoxy-quinolin-7-yloxy]-butyric acid cyclopentyl ester]",< 1000
< 1000,< 1000,"COc1cc2c(Oc3ccc(NC(=O)c4ccc(C(F)(F)F)cc4)cc3F)ccnc2cc1OCC[C@@H](N)C(=O)OC1CCCC1 [Example 106, (R)-2-Amino-4-{4-[2-fluoro-4-(4-trifluoromethyl-benzoylamino)-phenoxy]-6-methoxy-quinolin-7-yloxy}-butyric acid cyclopentyl ester]",< 1000
< 1000,< 1000,"COc1cc2c(Oc3ccc(NC(=O)c4ccccc4)cc3)ccnc2cc1OCC[C@H](N)C(=O)OC1CCC(C)C1 (stereo partly drawn) [Example 46, (S)-2-Amino-4-[4-(4-benzoylamino-phenoxy)-6-methoxy-quinolin-7-yloxy]-butyric acid 3-methyl-cyclopentyl ester]",< 1000
< 1000,< 1000,"COc1cc2c(Oc3ccc(NC(=O)c4ccc(C(F)(F)F)cc4)cc3)ccnc2cc1OCC[C@@H](N)C(=O)OC1CCCC1 [Example 103, (R)-2-Amino-4-{6-methoxy-4-[4-(4-trifluoromethyl-benzoylamino)-phenoxy]-quinolin-7-yloxy}-butyric acid cyclopentyl ester]",< 1000
< 1000,< 1000,"COc1cc2c(Oc3ccc(NC(=O)c4cccs4)cc3)ccnc2cc1OCC[C@H](N)C(=O)OC1CCCC1 [Example 75, (S)-2-Amino-4-(6-methoxy-4-{4-[(thiophene-2-carbonyl)-amino]-phenoxy}-quinolin-7-yloxy)-butyric acid cyclopentyl ester]",< 1000
